Values quoted from earlier work, collected in patent US12479917B2, “Methods of treating NSCLC comprising administering platinum doublet chemotherapy followed by an anti-PD-1 antibody and an anti-CTLA-4 antibody” (priority 2018, dated 2025).

What was measured:
[1] = monotherapy, every two weeks; MTD not reached
advanced NSCLC = conditions: second line (2 L)

Compound | maximum tolerated dose (MTD) [1] | efficacy outcomes compared with docetaxel (advanced NSCLC) | side effects compared with docetaxel (advanced NSCLC)
nivolumab | > 10 mg/kg |  | 
Nc1nc2[nH]cc(CCc3ccc(C(=O)N[C@@H](CCC(=O)O)C(=O)O)cc3)c2c(=O)[nH]1 [Pemetrexed] |  | clinically equivalent efficacy outcomes | significantly fewer side effects
